This is an account of results in patent publication US20200199127A1, “(HETERO)ARYLALKYLAMINO-PYRAZOLOPYRIDAZINE DERIVATIVES HAVING MULTIMODAL ACTIVITY AGAINST PAIN” (priority 2017, published 2020).

Experiment [1] has as its target Human norepinephrine transporter (NET) (Homo sapiens, UniProt P23975). As to the kind of experiment: Binding assay to human norepinephrine transporter (NET), [3H]-Nisoxetin. Conditions: human NET enriched membranes, 5 nM [3H]-Nisoxetin; Ki as class symbol. On the procedure:
Binding Assay to Human Norepinephrine Transporter (NET).
Human norepinephrine transporter (NET) enriched membranes (5 μg) were incubated with 5 nM of radiolabeled [3H]-Nisoxetin in assay buffer containing 50 mM Tris-HCl, 120 mM NaCl, 5 mM KCl, pH 7.4.
NSB (non specific binding) was measured by adding 10 μM of desipramine. The binding of the test compound was measured at five different concentrations.. After 60 min incubation at 4° C., binding reaction was terminated by filtering through Multiscreen GF/C (Millipore) presoaked in 0.5% polyethyleneimine in Vacuum Manifold Station, followed by 3 washes with ice-cold filtration buffer containing 50 mM Tris-HCl, 0.9% NaCl, pH 7.4.
Filter plates were dried at 60° C. for 1 hour and 30 μl of scintillation cocktail were added to each well before radioactivity reading.

Experiment [2] has as its target Human α2δ-1 subunit of Cav2.2 calcium channel (Homo sapiens, UniProt P54289). As to the kind of experiment: Human α2δ-1 subunit of Cav2.2 calcium channel assay, [3H]-Gabapentin binding. Conditions: human α2δ-1 enriched membranes, 15 nM [3H]-Gabapentin; Ki as class symbol. The protocol: Human α2δ-1 Subunit of Cav2.2 Calcium Channel Assay
Human α2δ-1 enriched membranes (2.5 μg) were incubated with 15 nM of radiolabeled [3H]-Gabapentin in assay buffer containing Hepes-KOH 10 mM, pH 7.4. NSB (non specific binding) was measured by adding 10 μM pregabalin. The binding of the test compound was measured at five different concentrations. After 60 min incubation at 27° C., binding reaction was terminated by filtering through Multiscreen GF/C (Millipore) presoaked in 0.5% polyethyleneimine in Vacuum Manifold Station, followed by 3 washes with ice-cold filtration buffer containing 50 mM Tris-HCl, pH 7.4. Filter plates were dried at 60° C. for 1 hour and 30 μl of scintillation cocktail were added to each well before radioactivity reading. Readings were performed in a Trilux 1450 Microbeta radioactive counter (Perkin Elmer).

By Ki is commonly meant the equilibrium dissociation constant of an inhibitor or competing ligand from its target.

Sequence of Human α2δ-1 subunit of Cav2.2 calcium channel (P54289 25-1103): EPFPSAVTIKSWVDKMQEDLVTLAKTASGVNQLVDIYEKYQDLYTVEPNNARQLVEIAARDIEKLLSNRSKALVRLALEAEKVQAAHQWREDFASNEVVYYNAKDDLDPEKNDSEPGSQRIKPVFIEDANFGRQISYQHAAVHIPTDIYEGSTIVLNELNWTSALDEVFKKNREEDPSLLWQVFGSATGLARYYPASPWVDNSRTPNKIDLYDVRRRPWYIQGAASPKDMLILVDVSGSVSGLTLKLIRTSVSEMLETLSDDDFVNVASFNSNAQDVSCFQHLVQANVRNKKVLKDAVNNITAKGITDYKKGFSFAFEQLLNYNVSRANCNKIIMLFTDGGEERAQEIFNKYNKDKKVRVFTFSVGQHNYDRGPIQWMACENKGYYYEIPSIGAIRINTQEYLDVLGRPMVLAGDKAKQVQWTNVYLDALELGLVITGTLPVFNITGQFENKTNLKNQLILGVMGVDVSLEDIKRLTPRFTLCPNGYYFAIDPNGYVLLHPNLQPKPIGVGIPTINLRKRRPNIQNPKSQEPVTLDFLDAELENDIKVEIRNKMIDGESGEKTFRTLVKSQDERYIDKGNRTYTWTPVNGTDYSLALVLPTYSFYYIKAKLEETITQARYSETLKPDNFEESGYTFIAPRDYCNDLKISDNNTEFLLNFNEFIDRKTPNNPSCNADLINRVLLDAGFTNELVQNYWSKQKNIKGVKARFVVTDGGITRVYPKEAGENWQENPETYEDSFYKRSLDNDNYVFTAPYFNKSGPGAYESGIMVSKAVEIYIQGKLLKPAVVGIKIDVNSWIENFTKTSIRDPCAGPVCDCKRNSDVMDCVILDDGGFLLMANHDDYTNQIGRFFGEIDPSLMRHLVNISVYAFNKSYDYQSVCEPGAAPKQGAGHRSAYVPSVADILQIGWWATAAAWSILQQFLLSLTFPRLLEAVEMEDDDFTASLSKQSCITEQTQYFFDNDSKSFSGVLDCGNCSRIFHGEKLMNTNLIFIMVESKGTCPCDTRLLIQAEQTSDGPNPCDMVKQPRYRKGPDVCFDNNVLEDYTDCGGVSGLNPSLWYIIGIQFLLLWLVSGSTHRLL
Sequence of Human norepinephrine transporter (NET) (P23975 whole entry): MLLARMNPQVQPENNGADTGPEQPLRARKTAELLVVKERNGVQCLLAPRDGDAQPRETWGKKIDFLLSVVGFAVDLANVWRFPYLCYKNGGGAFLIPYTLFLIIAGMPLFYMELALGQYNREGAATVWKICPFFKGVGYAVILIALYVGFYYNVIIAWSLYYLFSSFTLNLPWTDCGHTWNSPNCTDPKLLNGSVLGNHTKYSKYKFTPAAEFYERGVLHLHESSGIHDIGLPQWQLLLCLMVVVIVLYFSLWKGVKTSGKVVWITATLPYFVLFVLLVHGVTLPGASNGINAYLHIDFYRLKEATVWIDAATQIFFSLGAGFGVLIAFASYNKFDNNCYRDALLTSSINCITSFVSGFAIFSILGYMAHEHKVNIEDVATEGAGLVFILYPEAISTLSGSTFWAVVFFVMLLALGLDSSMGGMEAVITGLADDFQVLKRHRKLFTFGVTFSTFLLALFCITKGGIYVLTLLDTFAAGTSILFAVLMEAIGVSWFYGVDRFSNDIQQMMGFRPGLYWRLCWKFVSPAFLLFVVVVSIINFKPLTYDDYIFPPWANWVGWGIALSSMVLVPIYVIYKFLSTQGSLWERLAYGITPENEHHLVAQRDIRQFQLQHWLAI

Consider `CCOc1ccc(-n2nc3c(N(C)C(CCO)c4ccccc4)nnc(C)c3c2C)c(F)c1` (stereo not shown) [Example 54, 3-((2-(4-ethoxy-2-fluorophenyl)-3,4-dimethyl-2H-pyrazolo[3,4-d]pyridazin-7-yl)(methyl)amino)-3-phenylpropan-1-ol], for which the Ki was greater than 1000 nM in experiment [1] and 500 to 5000 nM in experiment [2].
The corresponding values for `CCOc1ccc(-n2nc3c(N(CCO)Cc4ccccn4)nnc(C)c3c2C)c(F)c1` [Example 56, 2-((2-(4-ethoxy-2-fluorophenyl)-3,4-dimethyl-2H-pyrazolo[3,4-d]pyridazin-7-yl)(pyridin-2-ylmethyl)amino)ethanol] are 500 to 1000 nM and 500 to 5000 nM.
On to `CCOc1ccc(-n2nc3c(N(CCO)Cc4cccnc4)nnc(C)c3c2C)c(F)c1` [Example 57, 2-((2-(4-ethoxy-2-fluorophenyl)-3,4-dimethyl-2H-pyrazolo[3,4-d]pyridazin-7-yl)(pyridin-3-ylmethyl)amino)ethanol], for which the Ki in experiment [1] is greater than 1000 nM; in experiment [2], no less than 5000 nM.
Consider `CCOc1ccc(-n2nc3c(N(C)CCn4cnc5ccccc54)nnc(C)c3c2C)c(F)c1` [Example 58, N-(2-(1H-Benzo[d]imidazol-1-yl)ethyl)-2-(4-ethoxy-2-fluorophenyl)-N,3,4-trimethyl-2H-pyrazolo[3,4-d]pyridazin-7-amine], for which the Ki in experiment [1] is greater than 1000 nM; in experiment [2] it was 500 to 5000 nM.
The corresponding values for `CCOc1ccc(-n2nc3c(NCCC4(c5ccccn5)CCOC5(CCCC5)C4)nnc(C)c3c2C)c(F)c1` (stereo not shown) [Example 59, 2-(4-ethoxy-2-fluorophenyl)-3,4-dimethyl-N-(2-(9-(pyridin-2-yl)-6-oxaspiro[4.5]decan-9-yl)ethyl)-2H-pyrazolo[3,4-d]pyridazin-7-amine] are greater than 1000 nM and no less than 5000 nM.
